Reference: patent US11371013B2, “Culture medium composition and method of culturing cell or tissue using thereof” (Nissan Chemical Industries, Ltd., priority 2012, dated 2022)

How the values were obtained:
Type in all cases: cell-based, human
[1] = tested on: HeLa cells; experiment: HeLa cell proliferation test using Trametinib and MK-2206; conditions: drug from day 1 for 5 days
Procedure: (§1) This aqueous solution was sterilized at 121° C. for 20 min in an autoclave.
(§2) Each plate was cultured by being stood still in a CO2 incubator (37° C., 5% CO2). […] The anticancer drugs used were Trametinib (manufactured by Santa Cruz, MEK inhibitor) and MK-2206 (manufactured by Santa Cruz, Akt inhibitor). To the culture medium on day 6 was added an ATP reagent (150 μL) (CellTiter-Glo (registered trade mark) Luminescent Cell Viability Assay, manufactured by Promega) to give a suspension, which was stood for about 10 min at room temperature, and the luminescence intensity (RLU value) was measured by FlexStation3 (manufactured by Molecular Devices), and the number of viable cells was measured by subtracting the luminescence value of the medium alone.

[2] = tested on: A549 cells; experiment: A549 cell proliferation test using Trametinib and MK-2206; conditions: drug from day 1 for 5 days
Procedure: This aqueous solution was sterilized at 121° C. for 20 min is in an autoclave.
as §2

[3] = tested on: HeLa cells; experiment: Comparison with single layer culture method in cell proliferation test using anticancer drug; conditions: day 4
Procedure: as §1
Each plate was cultured by being stood still in a CO2 incubator (37° C., 5% CO2). […] The anticancer drug used was Adriamycin (manufactured by WAKO), Paclitaxel (manufactured by WAKO) or Mitomycin C (manufactured by WAKO). To the culture medium on day 4 was added an ATP reagent (150 μL) (CellTiter-Glo (registered trade mark) Luminescent Cell Viability Assay, manufactured by Promega) to give a suspension, which was stood for about 10 min at room temperature, and the luminescence intensity (RLU value) was measured by FlexStation3 (manufactured by Molecular Devices), and the number of viable cells was measured by subtracting the luminescence value of the medium alone. For WST-8 measurement, a WST-8 solution (manufactured by DOJINDO Laboratories, 15 μL) was added, the mixture was incubated at 37° C. for 100 min, the absorbance at 450 nm was measured by an absorbance spectrometer (manufactured by Molecular Devices, SPECTRA MAX 190), and the number of viable cells was measured by subtracting the absorbance of the medium alone.

[4] = tested on: HeLa cells; experiment: Cell proliferation test using various anticancer drugs; conditions: DAG 0.030% medium; for cell density: HeLa cells 5 days later
Procedure: This aqueous solution was sterilized at 121° C. for 20 min in an autoclave. […] The anticancer drug used was Adriamycin (manufactured by WAKO), Paclitaxel (manufactured by WAKO) or Mitomycin C (manufactured by WAKO).
Successively, this plate was cultured by being stood still in a CO2 incubator (37° C., 5% CO2) for 7 days. After culturing for 3, 5, 7 days, to the culture medium was added a WST-8 solution (manufactured by DOJINDO Laboratories, 20 μL), and the mixture was incubated at 37° C. for 100 min. The absorbance at 450 nm was measured by an absorbance spectrometer (manufactured by Molecular Devices, SPECTRA MAX 190), and the number of viable cells was measured by subtracting the absorbance of the medium alone. The culture medium containing the cells after 5 days of culture was stirred with a pipette and the obtained stirred solution (20 μL) was mixed with Trypan Blue stain 0.4% (manufactured by Invitrogen, 20 μL) and the cell density was measured under a microscope.

[5] = 0.03 μM, deacylated gellan gum addition group (0.015%)
[6] = 0.03 μM, single layer culture group
[7] = 0.3 μM, deacylated gellan gum addition group (0.015%)
[8] = 0.3 μM, single layer culture group
[9] = 3 μM, deacylated gellan gum addition group (0.015%)
[10] = 3 μM, single layer culture group
[11] = 30 μM, deacylated gellan gum addition group (0.015%)
[12] = 30 μM, single layer culture group
[13] = 0.005 μM, deacylated gellan gum addition group (0.015%)
[14] = 0.005 μM, single layer culture group
[15] = 0.05 μM, deacylated gellan gum addition group (0.015%)
[16] = 0.05 μM, single layer culture group
[17] = 0.5 μM, deacylated gellan gum addition group (0.015%)
[18] = 0.5 μM, single layer culture group
[19] = 0.001 μM, single layer culture group
[20] = 0.003 μM, deacylated gellan gum addition group (0.015%)
[21] = 0.003 μM, single layer culture group
[22] = 0.01 μM, deacylated gellan gum addition group (0.015%)
[23] = 0.01 μM, single layer culture group
[24] = 0.001 μM, deacylated gellan gum addition group (0.015%)
[25] = 0.1 μM, deacylated gellan gum addition group (0.015%)
[26] = 0.1 μM, single layer culture group
[27] = 1 μM, deacylated gellan gum addition group (0.015%)
[28] = 1 μM, single layer culture group

NC1(c2ccc(-c3nc4ccn5c(=O)[nH]nc5c4cc3-c3ccccc3)cc2)CCC1 [MK-2206]
% Control of RLU value (ATP) [1, 5]: 57 % Control
% Control of RLU value (ATP) [1, 6]: 93 % Control
% Control of RLU value (ATP) [1, 7]: 21 % Control
% Control of RLU value (ATP) [1, 8]: 84 % Control
% Control of RLU value (ATP) [1, 9]: 21 % Control
% Control of RLU value (ATP) [1, 10]: 69 % Control
% Control of RLU value (ATP) [1, 11]: 0 % Control
% Control of RLU value (ATP) [1, 12]: 0 % Control
% Control of RLU value (ATP) [2, 5]: 84 % Control
% Control of RLU value (ATP) [2, 6]: 93 % Control
% Control of RLU value (ATP) [2, 7]: 45 % Control
% Control of RLU value (ATP) [2, 8]: 79 % Control
% Control of RLU value (ATP) [2, 9]: 21 % Control
% Control of RLU value (ATP) [2, 10]: 53 % Control
% Control of RLU value (ATP) [2, 11]: 0 % Control
% Control of RLU value (ATP) [2, 12]: 0 % Control

CO[C@@]12[C@H](COC(N)=O)C3=C(C(=O)C(C)=C(N)C3=O)N1C[C@@H]1N[C@@H]12 [Mitomycin C]
% Control of RLU value (ATP) [3, 13]: 83 % Control
% Control of absorbance at 450 nm (WST-8) [3, 13]: 94 % Control
% Control of RLU value (ATP) [3, 14]: 99 % Control
% Control of absorbance at 450 nm (WST-8) [3, 14]: 101 % Control
% Control of RLU value (ATP) [3, 15]: 48 % Control
% Control of absorbance at 450 nm (WST-8) [3, 15]: 37 % Control
% Control of RLU value (ATP) [3, 16]: 89 % Control
% Control of absorbance at 450 nm (WST-8) [3, 16]: 83 % Control
% Control of RLU value (ATP) [3, 17]: 29 % Control
% Control of absorbance at 450 nm (WST-8) [3, 17]: 12 % Control
% Control of RLU value (ATP) [3, 18]: 86 % Control
% Control of absorbance at 450 nm (WST-8) [3, 18]: 71 % Control
cell density ([4]; 0.01 μM): 1.0 10^4 cells/mL
cell number (absorbance at 450 nm, WST-8) ([4]; 0.01 μM, culture day 3): 0.089
cell number (absorbance at 450 nm, WST-8) ([4]; 0.01 μM, culture day 5): 0.016
cell number (absorbance at 450 nm, WST-8) ([4]; 0.01 μM, culture day 7): <0
cell density ([4]; 0.1 μM): 0.4 10^4 cells/mL
cell number (absorbance at 450 nm, WST-8) ([4]; 0.1 μM, culture day 3): 0.032
cell number (absorbance at 450 nm, WST-8) ([4]; 0.1 μM, culture day 5): <0
cell number (absorbance at 450 nm, WST-8) ([4]; 0.1 μM, culture day 7): <0
cell density ([4]; 1 μM): 0.1 10^4 cells/mL
cell number (absorbance at 450 nm, WST-8) ([4]; 1 μM, culture day 3): <0
cell number (absorbance at 450 nm, WST-8) ([4]; 1 μM, culture day 5): <0
cell number (absorbance at 450 nm, WST-8) ([4]; 1 μM, culture day 7): <0

CC(=O)O[C@H]1C(=O)[C@@]2(C)[C@H]([C@H](OC(=O)c3ccccc3)[C@]3(O)C[C@H](OC(=O)[C@H](O)[C@@H](NC(=O)c4ccccc4)c4ccccc4)C(C)=C1C3(C)C)[C@]1(OC(C)=O)CO[C@@H]1C[C@@H]2O [Paclitaxel]
% Control of RLU value (ATP) [1, 19]: 89 % Control
% Control of RLU value (ATP) [1, 20]: 46 % Control
% Control of RLU value (ATP) [1, 21]: 15 % Control
% Control of RLU value (ATP) [1, 22]: 5 % Control
% Control of RLU value (ATP) [1, 23]: 2 % Control
% Control of RLU value (ATP) [2, 24]: 93 % Control
% Control of RLU value (ATP) [2, 19]: 81 % Control
% Control of RLU value (ATP) [2, 20]: 52 % Control
% Control of RLU value (ATP) [2, 21]: 31 % Control
% Control of RLU value (ATP) [2, 22]: 32 % Control
% Control of RLU value (ATP) [2, 23]: 16 % Control
cell density ([4]; 0.1 μM): 0.9 10^4 cells/mL
cell density ([4]; 1 μM): 0.2 10^4 cells/mL

CC(=O)Nc1cccc(-n2c(=O)n(C3CC3)c(=O)c3c(Nc4ccc(I)cc4F)n(C)c(=O)c(C)c32)c1 [Trametinib]
% Control of RLU value (ATP) [1, 24]: 73 % Control
% Control of RLU value (ATP) [1, 19]: 102 % Control
% Control of RLU value (ATP) [1, 22]: 12 % Control
% Control of RLU value (ATP) [1, 23]: 93 % Control
% Control of RLU value (ATP) [1, 25]: 1 % Control
% Control of RLU value (ATP) [1, 26]: 20 % Control
% Control of RLU value (ATP) [1, 27]: 1 % Control
% Control of RLU value (ATP) [1, 28]: 3 % Control
% Control of RLU value (ATP) [2, 24]: 72 % Control
% Control of RLU value (ATP) [2, 19]: 71 % Control
% Control of RLU value (ATP) [2, 22]: 35 % Control
% Control of RLU value (ATP) [2, 23]: 37 % Control
% Control of RLU value (ATP) [2, 25]: 2 % Control
% Control of RLU value (ATP) [2, 26]: 5 % Control
% Control of RLU value (ATP) [2, 27]: 0 % Control
% Control of RLU value (ATP) [2, 28]: 1 % Control
